Test results as given in the OligoGym collection.
Oligonucleotides are written 5' to 3', each unit as a sugar letter and its base; * is a phosphorothioate linkage, no mark a phosphodiester; rarer units and linkages stand in square brackets, end groups in braces. Plain capitals give the bases only. d = 2'-deoxy (DNA); r = 2'-OH (RNA)
Further: test concentration or dose not given here.

The substances below were run against P2rx2 (rat) (assay: reporter assay of Huesken 2005). Conditions: siRNA.
With “sense rArGrUrCrArCrUrArCrUrCrCrCrArGrGrArUrCdTdT / antisense rGrArUrCrCrUrGrGrGrArGrUrArGrUrGrArCrUdAdG” the normalised inhibition (eCFP-eYFP dual reporter) was 64.6%.
“sense rArGrUrCrArUrCrArUrCrArArCrUrGrGrArArCdTdT / antisense rGrUrUrCrCrArGrUrUrGrArUrGrArUrGrArCrUdCdC” gave a normalised inhibition (eCFP-eYFP dual reporter) of 33.7%.
For “sense rCrArArGrGrCrArArUrGrGrGrArUrUrCrGrCrAdTdT / antisense rUrGrCrGrArArUrCrCrCrArUrUrGrCrCrUrUrGdCdA”, the normalised inhibition (eCFP-eYFP dual reporter) was 64.4%.
“sense rCrArCrCrArCrUrCrGrArArCrUrCrUrCrArUrCdTdT / antisense rGrArUrGrArGrArGrUrUrCrGrArGrUrGrGrUrGdGdT” showed a normalised inhibition (eCFP-eYFP dual reporter) of 64.7%.
In the case of “sense rCrArCrUrArCrUrCrCrCrArGrGrArUrCrArGrCdTdT / antisense rGrCrUrGrArUrCrCrUrGrGrGrArGrUrArGrUrGdAdC”, the normalised inhibition (eCFP-eYFP dual reporter) is reported as 46.4%.
In the case of “sense rCrArGrCrArUrArUrGrGrGrArCrArArArGrArCdTdT / antisense rGrUrCrUrUrUrGrUrCrCrCrArUrArUrGrCrUrGdGdC”, the normalised inhibition (eCFP-eYFP dual reporter) is reported as 51.7%.
“sense rCrArGrUrGrUrArGrUrCrArGrCrArUrCrArUrCdTdT / antisense rGrArUrGrArUrGrCrUrGrArCrUrArCrArCrUrGdCdC” was tested, and the normalised inhibition (eCFP-eYFP dual reporter) was 78.4%.
“sense rCrArUrCrArUrCrArCrCrArArArGrUrCrArArGdTdT / antisense rCrUrUrGrArCrUrUrUrGrGrUrGrArUrGrArUrGdGdA” showed a normalised inhibition (eCFP-eYFP dual reporter) of 71.5%.
In the case of “sense rCrArUrCrUrCrUrGrCrUrCrUrGrArCrUrGrArGdTdT / antisense rCrUrCrArGrUrCrArGrArGrCrArGrArGrArUrGdGdA”, the normalised inhibition (eCFP-eYFP dual reporter) is reported as 42.7%.
“sense rCrArUrUrGrUrUrGrArGrArArGrGrCrArGrGrAdTdT / antisense rUrCrCrUrGrCrCrUrUrCrUrCrArArCrArArUrGdAdA” gave a normalised inhibition (eCFP-eYFP dual reporter) of 61.4%.
In the case of “sense rCrCrArArGrArCrCrUrGrCrGrArGrGrUrGrUrCdTdT / antisense rGrArCrArCrCrUrCrGrCrArGrGrUrCrUrUrGrGdAdG”, the normalised inhibition (eCFP-eYFP dual reporter) is reported as 68.7%.
Work on “sense rCrCrGrGrArGrArGrCrUrCrCrArUrCrArUrCrAdTdT / antisense rUrGrArUrGrArUrGrGrArGrCrUrCrUrCrCrGrGdTdC” yielded a normalised inhibition (eCFP-eYFP dual reporter) of 54.2%.
In the case of “sense rCrGrGrArArGrArCrArArArGrUrGrUrGrGrGrAdTdT / antisense rUrCrCrCrArCrArCrUrUrUrGrUrCrUrUrCrCrGdAdC”, the normalised inhibition (eCFP-eYFP dual reporter) is reported as 64.6%.
“sense rCrGrUrGrCrArGrArArArArGrCrUrArCrCrArGdTdT / antisense rCrUrGrGrUrArGrCrUrUrUrUrCrUrGrCrArCrGdAdT” showed a normalised inhibition (eCFP-eYFP dual reporter) of 80.5%.
Work on “sense rCrUrArCrArArCrUrUrCrArGrGrUrUrUrGrCrCdTdT / antisense rGrGrCrArArArCrCrUrGrArArGrUrUrGrUrArGdCdC” yielded a normalised inhibition (eCFP-eYFP dual reporter) of 57%.
“sense rCrUrArCrCrCrCrArArGrUrUrCrArArGrUrUrCdTdT / antisense rGrArArCrUrUrGrArArCrUrUrGrGrGrGrUrArGdTdG” gave a normalised inhibition (eCFP-eYFP dual reporter) of 62.8%.
“sense rCrUrCrCrArUrCrGrGrGrGrUrGrGrGrCrUrCrCdTdT / antisense rGrGrArGrCrCrCrArCrCrCrCrGrArUrGrGrArGdGdT” gave a normalised inhibition (eCFP-eYFP dual reporter) of 38.5%.
“sense rCrUrCrCrUrUrCrCrUrGrUrGrUrGrArCrUrGrGdTdT / antisense rCrCrArGrUrCrArCrArCrArGrGrArArGrGrArGdCdC” was tested, and the normalised inhibition (eCFP-eYFP dual reporter) was 47.5%.
Substance “sense rCrUrCrUrGrArCrUrGrArGrCrArGrGrUrGrGrUdTdT / antisense rArCrCrArCrCrUrGrCrUrCrArGrUrCrArGrArGdCdA” has a normalised inhibition (eCFP-eYFP dual reporter) of 46.8%.
“sense rCrUrGrArCrArArCrCrArUrUrUrUrCrUrGrGrGdTdT / antisense rCrCrCrArGrArArArArUrGrGrUrUrGrUrCrArGdAdA” showed a normalised inhibition (eCFP-eYFP dual reporter) of 40.3%.
For “sense rCrUrGrGrArArCrUrGrUrGrArCrCrUrGrGrArCdTdT / antisense rGrUrCrCrArGrGrUrCrArCrArGrUrUrCrCrArGdTdT”, the normalised inhibition (eCFP-eYFP dual reporter) was 70.3%.
“sense rCrUrGrGrArCrArUrGrCrArArGrGrCrArArUrGdTdT / antisense rCrArUrUrGrCrCrUrUrGrCrArUrGrUrCrCrArGdCdT” showed a normalised inhibition (eCFP-eYFP dual reporter) of 55.2%.
With “sense rCrUrUrGrGrCrCrArGrCrArUrArUrGrGrGrArCdTdT / antisense rGrUrCrCrCrArUrArUrGrCrUrGrGrCrCrArArGdTdG” the normalised inhibition (eCFP-eYFP dual reporter) was 52%.
“sense rGrArArArUrUrCrArGrUrCrUrCrArUrUrCrCrCdTdT / antisense rGrGrGrArArUrGrArGrArCrUrGrArArUrUrUrCdCdC” showed a normalised inhibition (eCFP-eYFP dual reporter) of 39.7%.
For “sense rGrArCrArGrCrUrGrGrArCrArUrGrCrArArGrGdTdT / antisense rCrCrUrUrGrCrArUrGrUrCrCrArGrCrUrGrUrCdCdG”, the normalised inhibition (eCFP-eYFP dual reporter) was 35.3%.
With “sense rGrArCrCrCrUrGrCrCrUrCrCrUrCrArGrGrCrUdTdT / antisense rArGrCrCrUrGrArGrGrArGrGrCrArGrGrGrUrCdAdT” the normalised inhibition (eCFP-eYFP dual reporter) was 61.9%.
With “sense rGrArGrGrArArUrArCrGrUrArArArGrCrCrCrCdTdT / antisense rGrGrGrGrCrUrUrUrArCrGrUrArUrUrCrCrUrCdCdA” the normalised inhibition (eCFP-eYFP dual reporter) was 34.9%.
With “sense rGrArUrCrArGrGrArCrUrCrUrGrArCrCrCrArUdTdT / antisense rArUrGrGrGrUrCrArGrArGrUrCrCrUrGrArUrCdAdA” the normalised inhibition (eCFP-eYFP dual reporter) was 81.3%.
For “sense rGrCrArUrCrArUrCrArCrCrArGrGrArUrCrGrAdTdT / antisense rUrCrGrArUrCrCrUrGrGrUrGrArUrGrArUrGrCdTdG”, the normalised inhibition (eCFP-eYFP dual reporter) was 78.5%.
“sense rGrCrCrArCrCrCrArGrCrCrCrUrCrCrArUrCrAdTdT / antisense rUrGrArUrGrGrArGrGrGrCrUrGrGrGrUrGrGrCdTdG” showed a normalised inhibition (eCFP-eYFP dual reporter) of 60.8%.
For “sense rGrCrCrArUrArArGrArArGrUrUrCrGrArCrArAdTdT / antisense rUrUrGrUrCrGrArArCrUrUrCrUrUrArUrGrGrCdTdG”, the normalised inhibition (eCFP-eYFP dual reporter) was 88.6%.
For “sense rGrCrCrCrGrGrUrGrGrArGrGrArUrGrGrArArCdTdT / antisense rGrUrUrCrCrArUrCrCrUrCrCrArCrCrGrGrGrCdAdC”, the normalised inhibition (eCFP-eYFP dual reporter) was 48.4%.
“sense rGrCrUrArCrCrArGrGrArCrArGrCrGrArGrArCdTdT / antisense rGrUrCrUrCrGrCrUrGrUrCrCrUrGrGrUrArGrCdTdT” showed a normalised inhibition (eCFP-eYFP dual reporter) of 60.5%.
In the case of “sense rGrCrUrCrUrArCrCrUrGrCrCrArUrUrCrArGrAdTdT / antisense rUrCrUrGrArArUrGrGrCrArGrGrUrArGrArGrCdTdG”, the normalised inhibition (eCFP-eYFP dual reporter) is reported as 79.4%.
“sense rGrGrArArGrArCrArArArGrUrGrUrGrGrGrArCdTdT / antisense rGrUrCrCrCrArCrArCrUrUrUrGrUrCrUrUrCrCdGdA” was tested, and the normalised inhibition (eCFP-eYFP dual reporter) was 69.5%.
“sense rGrGrArGrArGrArArCrUrUrCrArCrArGrArArCdTdT / antisense rGrUrUrCrUrGrUrGrArArGrUrUrCrUrCrUrCrCdTdG” was tested, and the normalised inhibition (eCFP-eYFP dual reporter) was 61.7%.
Substance “sense rGrGrCrArGrGrGrArArArUrUrCrArGrUrCrUrCdTdT / antisense rGrArGrArCrUrGrArArUrUrUrCrCrCrUrGrCrCdTdG” has a normalised inhibition (eCFP-eYFP dual reporter) of 51.5%.
“sense rGrGrGrArArArUrUrCrArGrUrCrUrCrArUrUrCdTdT / antisense rGrArArUrGrArGrArCrUrGrArArUrUrUrCrCrCdTdG” showed a normalised inhibition (eCFP-eYFP dual reporter) of 72.6%.
With “sense rGrGrGrArUrUrCrGrCrArCrArGrGrGrCrArCrUdTdT / antisense rArGrUrGrCrCrCrUrGrUrGrCrGrArArUrCrCrCdAdT” the normalised inhibition (eCFP-eYFP dual reporter) was 66%.
With “sense rGrGrUrGrCrGrGrArArUrCrGrGrCrGrCrCrUrGdTdT / antisense rCrArGrGrCrGrCrCrGrArUrUrCrCrGrCrArCrCdAdC” the normalised inhibition (eCFP-eYFP dual reporter) was 69.3%.
For “sense rGrGrUrGrGrUrGrGrArCrArCrArCrUrUrGrGrCdTdT / antisense rGrCrCrArArGrUrGrUrGrUrCrCrArCrCrArCrCdTdG”, the normalised inhibition (eCFP-eYFP dual reporter) was 52.2%.
With “sense rGrUrGrUrCrArUrUrGrGrArGrUrCrArUrCrArUdTdT / antisense rArUrGrArUrGrArCrUrCrCrArArUrGrArCrArCdCdG” the normalised inhibition (eCFP-eYFP dual reporter) was 59%.
“sense rUrArCrCrUrCrArArGrCrArUrUrGrCrArCrArUdTdT / antisense rArUrGrUrGrCrArArUrGrCrUrUrGrArGrGrUrAdGdT” was tested, and the normalised inhibition (eCFP-eYFP dual reporter) was 72.3%.
Work on “sense rUrCrArArGrUrArGrArUrGrGrCrCrUrGrUrGrAdTdT / antisense rUrCrArCrArGrGrCrCrArUrCrUrArCrUrUrGrAdGdG” yielded a normalised inhibition (eCFP-eYFP dual reporter) of 67.1%.
Substance “sense rUrCrArGrCrCrArCrCrCrArGrCrCrCrUrCrCrAdTdT / antisense rUrGrGrArGrGrGrCrUrGrGrGrUrGrGrCrUrGrAdTdC” has a normalised inhibition (eCFP-eYFP dual reporter) of 51.2%.
“sense rUrCrArUrCrArArGrArArCrArGrCrArUrCrCrAdTdT / antisense rUrGrGrArUrGrCrUrGrUrUrCrUrUrGrArUrGrAdGdG” gave a normalised inhibition (eCFP-eYFP dual reporter) of 53.7%.
“sense rUrCrArUrCrArArUrCrUrGrGrCrCrArCrUrGrCdTdT / antisense rGrCrArGrUrGrGrCrCrArGrArUrUrGrArUrGrAdTdG” showed a normalised inhibition (eCFP-eYFP dual reporter) of 43.1%.
“sense rUrCrCrCrArGrArCrCrUrUrGrGrGrArArCrArUdTdT / antisense rArUrGrUrUrCrCrCrArArGrGrUrCrUrGrGrGrAdAdG” showed a normalised inhibition (eCFP-eYFP dual reporter) of 50.4%.
In the case of “sense rUrCrGrArUrGrUrUrArUrCrGrUrGrCrArUrGrGdTdT / antisense rCrCrArUrGrCrArCrGrArUrArArCrArUrCrGrAdTdT”, the normalised inhibition (eCFP-eYFP dual reporter) is reported as 57.4%.
For “sense rUrCrGrUrGrCrArGrArArArArGrCrUrArCrCrAdTdT / antisense rUrGrGrUrArGrCrUrUrUrUrCrUrGrCrArCrGrAdTdG”, the normalised inhibition (eCFP-eYFP dual reporter) was 74.2%.
With “sense rUrCrUrCrArUrCrCrUrGrCrUrUrUrArCrUrUrCdTdT / antisense rGrArArGrUrArArArGrCrArGrGrArUrGrArGrAdAdG” the normalised inhibition (eCFP-eYFP dual reporter) was 61.3%.
“sense rUrGrArCrCrCrUrUrGrCrCrCrUrUrGrUrCrUrUdTdT / antisense rArArGrArCrArArGrGrGrCrArArGrGrGrUrCrAdCdA” gave a normalised inhibition (eCFP-eYFP dual reporter) of 53.9%.
